For experiment [1], the system named is human fibroblasts. In words: Anti-stress effect on UV-A-damaged fibroblasts. The format is cell-based. As to conditions: + UV-A 20 J/cm^2; for Cell proteins: blank sample = 100; for GSH/proteins: blank sample = 100, blank + UV-A = 65. As for the experimental part:
UV-A radiation in the 320 to 400 nm range induces oxidative stress which is mainly produced by the activation of photosensitive biological components which in turn catalyze the formation of ROS-like superoxide anions, hydrogen peroxide and singlet oxygen atoms. The anti-UV-A effect was tested on fibroblasts because UV-A radiation penetrates through the dermis where it causes oxidative damage by lipoperoxidation of the cell membrane and a reduction in the content of reduced glutathione (GHS). To this end, human fibroblasts were cultivated as described in a), exposed to UV-A rays (20 J/cm^2) and the cell counts and the GSH content subsequently determined. The results are set out in Table 3, where they are expressed in %-rel. against a blank sample, and represent the results of 3 series of measurements with triple determination.

Experiment [2] deals with human leukaemic granulocytes. In words: Anti-inflammatory activity: respiratory burst of granulocytes (zymosan, luminol). The format is cell-based. Particulars: + stimulation (zymosan), blank + stimulation = 100. The text has this:
In the course of cutaneous inflammation, leucocytes, such as the polymorphonuclear neutrophilic granulocytes (PMNs) for example, are stimulated by peptides, such as cytokines for example, to emit messenger substances, such as leucotriene for example, which are released from activated or necrotic cells in the dermis. These activated PMNs release not only pro-inflammatory cytokinins, leucotrienes and proteases, but also ROS, such as superoxides and hypochlorite anions for example, of which the function is to destroy penetrated pathogenic germs or fungi. This activity of the PMNs during the inflammation is known as so-called respiratory burst. To investigate to what extent the test extracts can prevent or reduce the respiratory burst, a cell line of human leukaemic granulocytes of these PMNs was incubated together with the test substances at 37° C. and 5% by vol. CO2. After the respiratory burst had been initiated by addition of a yeast extract (zymosan) to the cell solution, the release of superoxide anions was determined through their reaction with luminol.

Experiment [3] relates to bacterial collagenase (clostridium histolyticum). In words: Collagenase inhibition on FITC-marked gelatin. Particulars: 60 mins. at 20° C. Format: biochemical. The method, then:
In the event of inflammation, skin proteases, for example collagenase, are released from the polymorphonuclear neutrophilic granulocytes or macrophages. A similar process takes place in the skin of elderly people on exposure to UV rays. As already mentioned, the proteases—also known as matrix metalloproteases (MMPs) through their content of central zinc ions—catalyze the fragmentation of connective tissue proteins. The test substances were tested for collagenase inhibition using bacterial collagenase (clostridium histolyticum) on gelatin marked with fluorochromium (FITC, Calbiochem) as a natural nutrient medium. The incubation time was 60 mins. at 20° C.; the hydrolysis of the substrate was monitored by fluorescence at 393 nm (excitation at 328 nm). The results are set out in Table 6 as the collagenase inhibition in %.

Another experiment has as its system human keratinocytes. In words: Growth inhibition on human keratinocytes with EGF. The format is cell-based. As to conditions: with EGF 10 ng/ml, 3 days, control = 100, control with EGF = 167. The method, then: Increased proliferation and differentiation of keratinocytes of the hair matrix leads to improved longer hair growth. The following test was carried out to determine the potential of the sugar esters for inhibiting hair growth which is visibly reflected in a reduction in the proliferation of human keratinocyte culture in vitro.
To this end, human keratinocytes were cultivated in a standard cell culture medium containing foetal calf serum (FCS). After incubation for 1 day at 37° C./5% CO2, the growth medium was replaced by standard medium containing 10 ng/ml epidermal growth factor (EGF) and various concentrations of sugar esters dissolved in ethanol (1% by volume).
After incubation for three days, the number of living cells was determined by determining the cell protein content by the Bradford method [Bradford, M. M., A rapid and sensitive method for the quantitation of microgram quantities of protein utilizing the principle of protein-dye binding. Anal. Biochem. (1977), Vol. 72, pp. 248-254].
The results of Table 8 represent the values of triple determinations on two batches expressed in % against a control of cell culture medium without sugar ester.

Experiment [4] has as its system human fibroblasts. The experiment can be described thus: Regenerative effect and detoxifying potential: GSH in human fibroblasts. The format is cell-based. Particulars: conc. 0.001 % w/v; 3 days in test solution; against blank sample = 100. As for the experimental part:
Glutathione (GSH) is a special protein which is produced by the cells for protection against oxidative stress and environmental poisons, more particularly against heavy metals. The three amino acids involved in the reduced form of GSH are linked to special cytoplasmatic enzymes which need ATP for activation. An increase in the GSH concentration leads to an increase in the glutatione-S-transferase activity, a detoxifying enzyme. The stimulation for detoxification by the test substances was tested on human fibroblasts by measurement of the GSH. In a series of tests, fibroblasts were first incubated for 3 days at 37° C. in a nutrient solution and then for 3 days at the same temperature in a test solution. The protein content in the cells was then determined by the Bradford method and the GSH concentration by the Hissin method [cf. Analytical Biochem. 74, 214-226 1977]. The results are set out in Table 2, where they are expressed in %-rel. against a blank sample, and represent the results of 3 series of measurements with triple determination.

Experiment [5] deals with melanocytes (B16 cell line). In words: Inhibition of melanin synthesis in B16 melanocytes. The format is cell-based. As to conditions: 3 days, blank value = 100. As for the experimental part: Melanin is the pigment responsible for the color of the skin and hair. It is formed in special organelles, the melanosomes, which occur in the melanocytes of the basal layer of the human epidermis. The biosynthesis of melanin begins with the amino acid tyrosine which is oxidized to DOPA (dihydroxyphenylalanine) in the presence of tyrosinase. The DOPA then polymerizes to melanin. […] After incubation for 3 days at 37° C./5% CO2, the nutrient medium was replaced by a solution containing the test substances in various concentrations. After incubation for another 3 days, the cell protein content (Bradford's method) and the content of synthesized melanin were determined through the optical density of the homogenizate at 475 nm. The results are expressed in % against a blank value and are set out in Table 7.

Experiment [6] concerns Propionibacterium acnes. In words: Agar diffusion method, inhibition zones. Format: cell-based. As to conditions: filter paper with 20 μl test substance; 18 to 24 h at 37° C., anaerobic. As for the experimental part:
(§1) The antibacterial activity of the test substances was tested by the diffusion method on agar plates or the agar dilution method. In this method, a round filter paper of defined diameter is first impregnated with the test solution and then applied to the surface of an agar plate inoculated beforehand with the test microorganisms. The size of the inhibition zones is then determined after defined times. In particular, it is possible by this method to determine the MIC (Minimum Inhibitory Concentration) as the lowest concentration of test substance with which complete inhibition of the microorganisms can be obtained.
(§2) Agar diffusion method. The inoculum was prepared using a fresh culture in a stationary growth phase (after ca. 18-24 h) in a BHI solution (brain-heart Infusion). The bacterial suspension was adjusted to 0.5 MacFarland units, corresponding to 1.5 10^8 colony-forming units (cfu)/ml; the suspension was then diluted with a sodium chloride solution (1:100) to adjust a value of 1.5 10^6 cfu/ml. Mueller-Hinton agar (Staphylococcus epidermidis, Staphylococcus aureus) and Wilkins-Chalgrens agar containing 5% by weight sheep's blood (Propionibacterium acnes) were then sterilized for 15 mins. at 121° C. and then placed in Petri dishes. 2 to 4 ml of the bacterial suspension were then added to the Petri dishes, followed by drying at room temperature. The filter papers were impregnated with 20 μl of the test substances and applied to the surface of the agar plates. The inoculated Petri dishes were incubated for 18 to 24 h at 37° C. (the Petri dishes containing Propionibacterium acnes under anaerobic conditions) and the antimicrobial activity was then determined by determination of the growth inhibition zones. The results are set out in Table 10 and represent the diameters of the inhibition zones in mm.
A general note: A growth-free zone around the sample is the usual read-out of agar diffusion tests.

Experiment [7] deals with Staphylococcus aureus. In words: Agar diffusion method, inhibition zones. Particulars: filter paper with 20 μl test substance; 18 to 24 h at 37° C. The format is cell-based. As for the experimental part: as §1, §2
Experiment [8] relates to Staphylococcus epidermidis. In words: Agar diffusion method, inhibition zones. Format: cell-based. As to conditions: filter paper with 20 μl test substance; 18 to 24 h at 37° C. As for the experimental part:
as §1, §2

Experiment [9] deals with Propionibacterium acnes. In words: Agar dilution method (MIC determination). The format is cell-based. Particulars: 18 to 24 h at 37° C. The method, then: as §1, with “obtained. Agar dilution method (MIC determination). Various agars were prepared as described above, test substances were added in various concentrations, homogenized and dried. The Petri dishes were then inoculated with quantities of 2 μl of the bacterial suspension. After each drying step the Petri dishes were incubated for 18 to 24 h at 37° C. […] The results represent the averages of double determinations.” for “obtained.”

In experiment [10] the test system is Staphylococcus aureus. The experiment can be described thus: Agar dilution method (MIC determination). Format: cell-based. As to conditions: 18 to 24 h at 37° C. The method, then:
as §1, with “obtained. Agar dilution method (MIC determination). Various agars were prepared as described above, test substances were added in various concentrations, homogenized and dried. The Petri dishes were then inoculated with quantities of 2 μl of the bacterial suspension. After each drying step the Petri dishes were incubated for 18 to 24 h at 37° C. […] The results represent the averages of double determinations.” for “obtained.”

Experiment [11] deals with Staphylococcus epidermidis. In words: Agar dilution method (MIC determination). The format is cell-based. Particulars: 18 to 24 h at 37° C. As for the experimental part: as §1, with “obtained. Agar dilution method (MIC determination). Various agars were prepared as described above, test substances were added in various concentrations, homogenized and dried. The Petri dishes were then inoculated with quantities of 2 μl of the bacterial suspension. After each drying step the Petri dishes were incubated for 18 to 24 h at 37° C. […] The results represent the averages of double determinations.” for “obtained.”

A value given as a limit tells only on which side of the number the result lay.

Consider three substances from US20050220726A1, “Use of sugar esters in cosmetic and/or pharmaceutical preparations” (priority 2003, published 2005).

Take Fructose palmitate: the Cell proteins in the experiment with human fibroblasts [1] (conc. 0.003 % w/v) is given as 91 %-rel. In addition, the GSH/proteins in the experiment on human fibroblasts [1] (conc. 0.003 % w/v) is listed as 81 %-rel. In addition, the Cell counts in experiment [2] (conc. 0.001 % w/v) was 97 %-rel; in experiment [2] (conc. 0.01 % w/v) it was 98 %-rel. The results for the ROS released in experiment [2] (conc. 0.001 % w/v) and in experiment [2] (conc. 0.01 % w/v) were 81 %-rel and 42 %-rel, respectively. Also, the Collagenase inhibition is recorded as 4 %-rel in experiment [3] (Conc. [w/v] 0.03), 41 %-rel in experiment [3] (Conc. [w/v] 0.1) and 78 %-rel in experiment [3] (Conc. [w/v] 0.3). The figures for the “Cell protein content in %” value in the experiment on human keratinocytes (conc. 0.001 % w/v), in the experiment on human keratinocytes (conc. 0.003 % w/v) and in the experiment on human keratinocytes (conc. 0.01 % w/v) were 166%, 143% and 105%, respectively.
On to Trehalose stearate, for which the GSH/proteins in the experiment with human fibroblasts [4] is 141 %-rel; with human fibroblasts [1] (conc. 0.001 % w/v), 84 %-rel. Moreover, the values for the Cell proteins (in the experiment on human fibroblasts [1] (conc. 0.001 % w/v); in experiment [5] (conc. 0.001 % w/v); in experiment [5] (conc. 0.003 % w/v)) were 124 %-rel, 97 %-rel and 93 %-rel, respectively. Moreover, the Cell melanin in [5] (conc. 0.001 % w/v) is on record as 81 %-rel; in experiment [5] (conc. 0.003 % w/v), 41 %-rel. For the same substance, in the experiment with Propionibacterium acnes [6], the “Inhibition zones, Propionibacterium acnes” value is on record as 0 mm. Further, the “Inhibition zones, Staphylococcus aureus” value with Staphylococcus aureus [7] is 12 mm. Further, the “Inhibition zones, Staphylococcus epidermidis” value in experiment [8] is reported as 11 mm. In the experiment on Propionibacterium acnes [9], the “MIC, Propionibacterium acnes” value is 1250 µg/mL. Besides, the “MIC, Staphylococcus aureus” value in the experiment with Staphylococcus aureus [10] is more than 10000 µg/mL. Further, the “MIC, Staphylococcus epidermidis” value in experiment [11] was found to be 625 µg/mL.
Turning to Trehalose palmitate, the GSH/proteins with human fibroblasts [4] was determined as 125 %-rel. In addition, in the experiment with human fibroblasts [1] (conc. 0.001 % w/v), the Cell proteins is given as 124 %-rel and the GSH/proteins is on record as 87 %-rel. Besides, in [3] (Conc. [w/v] 0.3), the Collagenase inhibition turned out to be 9 %-rel. Moreover, in the experiment with Propionibacterium acnes [6], the “Inhibition zones, Propionibacterium acnes” value turned out to be 0 mm. Further, the “Inhibition zones, Staphylococcus aureus” value with Staphylococcus aureus [7] is recorded as 14 mm. For the same substance, the “Inhibition zones, Staphylococcus epidermidis” value in [8] turned out to be 11 mm.
